Test results from US20050107289A1, “Anti-microbial peptides and compositions” (priority 2001, published 2005).
Non-standard residues stand in square brackets, D forms with d. Residues, ends and D or L forms follow the SMILES beside them.

Experiments:
[1] = test system: Bacillus cereus ATCC 11778; type: cell-based
In short: (§1)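 MIC read from NCCLS-style broth dilution. Peptide concentrations were set by quantitative HPLC or Trp UV absorbance at 280 nm, then serially halved from about 400 to 2 μg/ml in 5% DMSO/9% sucrose. Inoculum: approximately 2.5×10^5 cfu/ml.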

[2] = test system: Streptococcus pneumoniae (ATCC 6301); type: cell-based
In short: as §1

[3] = test system: S. aureus (MRSA) (ATCC No. 33592); assay: Time-killing curve, S. aureus MRSA ATCC 33592; type: cell-based, Staphylococcus aureus; conditions: about 4 μg/ml
Method: (§2) The speed at which several of the cyclic peptides of the invention kill E. coli JM 109 (DE3), Enterococcus faecium SP 180 and S. aureus (MRSA) (ATCC No. 33591 and 33592) was further tested at room temperature and/or at 37° C. A lower temperature tends to enrich the bacterial cultures for mature bacteria because the bacteria are not growing quickly. […] The presence or absence of immature bacteria in the culture may influence the rate at which the bacteria are killed, because immature bacteria tend to be more susceptible to many forms of antibiotics.
FIGS. 9 and 10 illustrate the time course for killing S. aureus (MRSA) (ATCC No. 33592) with varying concentrations of cyclo[KSKWLWLW] cyclic peptide (SEQ ID NO:12) at room temperature and at 37° C. […] This may be due to growth of a few survivors after the residual cyclic peptide within the culture has been exhausted because the amount of peptide employed in that assay was below the MIC value.

E. faecium SP180 = assay: Time-killing curve, E. faecium SP180; type: cell-based, Enterococcus faecium; conditions: for time to kill effectively all bacteria / killing of bacteria: about 2 μg/ml, BHI broth
Method: as §2
FIGS. 11 and 12 illustrate the time course for killing E. faecium SP 180 with varying concentrations of KSKWLWLW (SEQ ID NO:12), at room temperature and at 37° C. Assays were performed in Brain Heart Infusion broth. As illustrated, somewhat shorter times and/or somewhat lower concentrations of this cyclic peptide are required to kill E. faecium SP180 at 37° C. than at room temperature. E. faecium SP180 is vancomycin resistant (vanA) and multiply resistant to several FDA approved antibiotics. […] This may be due to growth of a few survivors after the residual cyclic peptide within the culture has been exhausted because the amount of peptide employed in that assay was below the MIC value.

Toxicity studies in mice = type: in vivo; set-up: LD50(IP) / LD50(IV): unit not given here; conditions: for LD50(IP) / LD50(IV): Table 12, male Balb-C mice; for LD50 at 14 days: male, Balb-C, mouse, in vivo, ip, Table 13
Method: Peptides were tested for toxicity in vivo using procedures similar to those described previously. […] Mice (male Balb-C) in groups of 4-8 were given via IV, IP or SQ single bolucdoses of peptides and monitored for 14 days. Toxicity of sublethal doses was assessed based on the behavior and appearance of the mice after peptide administration compared to control mice receiving only vehicle. Signs of acute toxicity included lack of activity, red feet and tail, faster breathing. Death was defined as the end point for lethal doses of peptides.
Toxicology Studies: Initial toxicology studies in mice were conducted to evaluate various routes of drug administration, maximum tolerable dose, and blood and tissue toxicity. Two mice in each dose study were injected with a bolus intravenous (IV), intraperitoneal (IP), or subcutaneous (SQ) doses of peptide SEQ ID NO:8, 18, and 26. For each study, two control animals received vehicle only and no peptide. […] Signs of acute toxicity included any one of the following: lack of activity, red feet and tail, or faster breathing. […] A regimen of […] of peptide SEQ ID NO:18 for three consecutive days was administered to two mice IP and two mice SQ.

Structure (SMILES) | B. cerius MIC [1] | S. pneum. MIC [2] | rebound of bacterial population ([3]; 37° C.) | time to kill effectively all bacteria ([3]; 37° C.) | rebound of bacterial population ([3]; room temperature) | time to kill all S. aureus (MRSA) ([3]; room temperature) | time to kill effectively all bacteria (E. faecium SP180; 37° C.) | killing of bacteria (E. faecium SP180; room temperature) | LD50(IP) (Toxicity studies in mice) | LD50(IV) (Toxicity studies in mice) | LD50 at 14 days (Toxicity studies in mice) | physical, social and feeding activities (Toxicity studies in mice; mice, 17.5 mg per day, three consecutive days, IP or SQ, over four days) | sites of IP and SQ injections (Toxicity studies in mice; mice, 17.5 mg per day, three days) | hematology, necropsy and microscopic examination (Toxicity studies in mice; mice, 17.5 mg per day, three days, fourth day) | signs of toxicity (Toxicity studies in mice; mice, up to 17.5 mg/kg IP and SQ) | signs of toxicity (Toxicity studies in mice; mice, IP, maximum tested dose 12 mg/kg) | signs of toxicity (Toxicity studies in mice; mice, bolus IV 12 mg/kg) | rebound in bacterial viability (E. faecium SP180; 1 μg/ml, 37° C.) | time after which effectively no cfu can be detected (E. faecium SP180; 1 μg/ml, 37° C.) | surviving bacteria (E. faecium SP180; 1 μg/ml, room temperature)
CC(C)C[C@H]1NC(=O)[C@H](Cc2c[nH]c3ccccc23)NC(=O)[C@@H](CCCCN)NC(=O)[C@H](CCCNC(=N)N)NC(=O)[C@@H](CCCNC(=N)N)NC(=O)[C@H](Cc2c[nH]c3ccccc23)NC(=O)[C@@H](CC(C)C)NC(=O)[C@H](Cc2c[nH]c3ccccc23)NC1=O [SEQ ID NO:18, cyclo-(D-Arg-Arg-D-Lys-Trp-D-Leu-Trp-D-Leu-Trp)] (cyclo([dR]R[dK]W[dL]W[dL]W)) | 5 µg/mL | 5 µg/mL | rebounds by about eight hours | within about one hour | no rebound is observed | ≤ 1 h | within one hour | within one hour | 60 | 16 | 60 mg/kg | no apparent changes in the physical, social, and feeding activities | moderate subacute inflammation | normal blood and morphological profiles except for the sites of IP and SQ injections | without any apparent signs of toxicity |  |  |  |  | 
CC(C)C[C@H]1NC(=O)[C@H](Cc2c[nH]c3ccccc23)NC(=O)[C@@H](CCCNC(=N)N)NC(=O)[C@H](CCC(N)=O)NC(=O)[C@@H](CCCCN)NC(=O)[C@H](Cc2c[nH]c3ccccc23)NC(=O)[C@@H](CC(C)C)NC(=O)[C@H](Cc2c[nH]c3ccccc23)NC1=O [SEQ ID NO:8, cyclo-(D-Lys-Gln-D-Arg-Trp-D-Leu-Trp-D-Leu-Trp)] (cyclo([dK]Q[dR]W[dL]W[dL]W)) |  |  |  |  |  |  |  |  | 55 | >12 | 55 mg/kg |  |  |  |  | no signs of toxicity were observed | signs of temporary (<10 min in duration) discomfort |  |  | 
CC(C)C[C@H]1NC(=O)[C@H](Cc2c[nH]c3ccccc23)NC(=O)[C@@H](CCCCN)NC(=O)[C@H](CO)NC(=O)[C@@H](CCCCN)NC(=O)[C@H](Cc2c[nH]c3ccccc23)NC(=O)[C@@H](CC(C)C)NC(=O)[C@H](Cc2c[nH]c3ccccc23)NC1=O [SEQ ID NO:12, D-Lys-Ser-D-Lys-Trp-D-Leu-Trp-D-Leu-Trp] (cyclo([dK]S[dK]W[dL]W[dL]W)) | < 3 µg/mL | 10 µg/mL | rebounds by about six hours | within about one hour | no rebound is observed | ≤ 2 h | faster than an aliquot can be removed from the test culture | discernible numbers of surviving bacteria can be detected immediately | >400 | 70 | > 400 mg/kg |  |  |  |  |  |  | rebound in bacterial viability | 2 h | viable bacteria can be detected throughout the entire time-course
